From US20260234159A1, “SMALL MOLECULE TREATMENT OF FATTY LIVER DISEASE AND HCC” (SCANDIEDGE THERAPEUTICS AB, priority 2023, published 2026)

Columns and labels:
HSD fed rats = test: In vivo efficacy study in high sucrose diet (HSD) steatosis rats; conditions: HSD plus 30 mg/kg seven days
Excerpt: In vivo efficacy studies. After 1-week acclimation period, rats were randomly separated into two groups: control group (n=5) and high sucrose group (n=20). The control group was fed with a standard diet while the others consumed high sucrose diet (HSD). Sucrose was purchased from Sigma Chemical Co. (St Louis, MO, USA) and supplied at the dose of 10% in the drink water for two weeks.
After 2 weeks, five rats in the HSD group were randomly sacrificed for conformation of NAFLD model. Then, the remaining rats in the HSD group were separated into three sub-groups (n=5): HSD group, HSD plus BX-912 group and HSD plus JNK-IN-5A group. BX-912 and JNK-IN-5A were dissolved in DMSO and were orally administrated using oral gavage for one week (30 mg/kg/day). The HSD group were treated with vehicle solution only.
At the end of the experiment, rats were sacrificed after being anesthetized. Blood samples were collected from the abdominal aorta and centrifuged at 8000 rpm for 15 min at 4° C. The plasma was separated and stored at −80° C. until further analysis. Other internal organs, including the heart, adipose tissues, liver, kidney, muscle, intestine (duodenum, ileum, jejunum), pancreas, colon and stomach were immediately removed and then snap frozen in liquid nitrogen and stored at −80° C.; the liver was also fixed in 10% formaldehyde for histopathological examination.
Histopathological examination. The liver tissues were fixed in 10% buffered formaldehyde solution. After fixation, the tissues were passed through graded alcohol and xylene series and embedded in paraffin blocks. 5 micrometer thick sections were taken serially from the paraffin blocks. Histopathological changes were evaluated by performing hematoxylin eosin staining on the sections taken. Sections were evaluated according to histopathological findings as none (−), mild (+), moderate (++) and severe (+++).
Immunohistochemical examination. After deparaffinization, the slides were immersed in antigen retrieval solution (pH 6.0) and heated in microwave for 15 min to unmask the antigens. The sections were then dipped in 3% H2O2 for 10 min to block endogenous peroxidase activity. Protein block was dropped onto the sections, washed with PBS for 10 min. Primary antibodies (8-OH-dG, Cat No: sc-66036, Diluent Ratio: 1/100, Santa Cruz) were prepared and applied according to the usage conditions. Expose mouse and rabbit specific HRP/DAB detection IHC kit were used as follows: sections were incubated with goat anti-mouse antibody, then with streptavidin peroxidase, and finally with 3,3′ diamino benzidine+chromogen. Slides were counter stained with hematoxylin. Immunoreactivity in the sections were graded as none (−), mild (+), moderate (++) and severe (+++).

p21 = test: Nuclear protein western blot, p21; format: cell-based, human; conditions: 10 μM, 2 days
Procedure: HepG2 cells were seeded into a 6-well plate at 400,000 cells per well. After treatment with 10 μM of JNK-IN-5A and its derivatives for two days, lysates were harvested with CelLytic M (C2978, Sigma-Aldrich). 20 μg lysate was prepared with 2× Laemmli Sample Buffer (1610737, Biorad). SDS PAGE were performed using Mini-PROTEAN® TGX™ Precast Gels (Bio-Rad) and transferred using Trans-Blot® Turbo™ Transfer System (Bio-Rad). Primary antibody, PARP (95425, Cell signalling), Caspase 3 (ab32042, abcam), Bcl-2 (ab182858), STAT1 (HPA000982, Merk), PKL (06653, Sigma), PKM (4053S, Cell signalling), GAPDH (ab8245, abcam), P53 (ab32389, abcam), p21 (ab109199, abcam), p-S349 p62 (ab211324, abcam), p62 (ab109012, abcam), c-Myc (ab32072, abcam), GPX4 (ab125066, abcam), MMP9 (MA5-32705, Invitrogen), β-actin (ab8227, abcam), and α-tubulin (ab7291, abcam) were blotted overnight and Goat Anti-Rabbit HRP (ab205718) and goat anti-mouse IgG-HRP (sc2005, Santa Cruz Biotechnology, Inc.) were blotted for secondary antibody for one hour. ImageQuantTMLAS 500 (29-0050-63, GE) was used to detect protein bands.

HepG2 cells = test: Autophagy assay; format: cell-based, human; conditions: 10 μM, one day
Procedure: HepG2 cells were seeded into a 6-well plate at 400,000 cells per well. After treatment with the compounds at desired concentration and time, TMRE (ab113852, abcam), Autophagy (ab139484, abcam), ROS (ab113851, abcam), and Lipid peroxidation (ab243377, abcam) assay were performed according to manufacturer's instructions. Fluorescence images were taken using ZOE™ Fluorescent Cell Imager (Biorad) and ROI of fluorescence intensity was measured and calculated by Image J. For microplate reader florescence assay, 40,000 of HepG2 cells were seeded into a 96-well plate and triplicated. GFP (Ex480 nm, Em530 nm) and RFP (Ex549 nm, Em574 nm) were measured using a microplate reader (Hidex Sense Meta Plus).

[1] = In vivo biosafety study in rats: histopathological and immunohistochemical examination; design: species or system Sprague Dawley male rats; conditions: 30 mg/kg, seven days
Procedure: In vivo biosafety studies. Healthy Sprague Dawley male rats (12 weeks old, 250-280 g) were obtained from Atatürk University Experimental Research Center ([…] Turkey) and housed under standard environmental conditions (temperature 20° C.-25° C., humidity 50±20% and 12-hour light/dark diurnal cycle). Food and water were available ad libitum. Rats were randomly separated into one control group and two experimental groups (30 mg/kg/day BX-912 or JNK-IN-5A, n=5). […] The control group were received the same amount of vehicle solution only. After 7 days, rats were anaesthetized, and blood samples were collected from the abdominal aorta for biochemical and haematological analysis. The plasma was separated and stored at -80° C. for further analysis. Major organs such as heart, kidney, liver, muscle, adipose, intestine (duodenum, ileum, jejunum), pancreas, colon, and stomach were collected from all the animals for further analysis. Selected organs were fixed in 10% neutral buffered formalin for histopathological examination. Histopathological examination. […] Immunohistochemical examination. […] Slides were counter stained with hematoxylin.

N#Cc1c(NC(=O)c2cccc3ccccc23)sc2c1CCCC2 [JNK-IN-5A, N-(3-cyano-4,5,6,7-tetrahydrobenzo[b]thiophen-2-yl)-1-naphthamide]
toxic effect on small intestine, large intestine, stomach, heart and muscle tissues (HSD fed rats): no toxic effect
degeneration in hepatocytes in liver tissues (HSD fed rats; HSD 3w severe): mild
degeneration in renal tubule epithelium (HSD fed rats; HSD 3w severe): mild
fattening in the parenchyma cells of pancreas tissues (HSD fed rats; HSD 3w severe): mild
steatosis in hepatocytes in liver tissues (HSD fed rats; HSD 3w severe): mild
8-OH-dG expression in hepatocytes (HSD fed rats; HSD 3w strong): significantly decreased
p21 nuclear localization (p21): localized in the nucleus
autophagy GFP signals (HepG2 cells): significantly increased
histological structures of major organs [1]: normal histological structures
side effects on the rats [1]: no side effects
8-OH-dG expression in liver tissues ([1]; IHC): negative
